Values quoted from earlier work, collected in US7402578B2, “Methods for inhibiting cognitive deterioration in adults with down's syndrome” (Corcept Therapeutics, Inc., priority 2001, dated 2008).

Key:
[1] = in one study (Kawai)
[2] = test system: cognitive function in DS children; conditions: Lobaugh et al. 2001

| fraction of the daily dose excreted in the urine [1] | SMILES | enhancement of cognitive function [2] |
| --- | --- | --- |
| less than 0.5% | CC#C[C@]1(O)CC[C@H]2[C@@H]3CCC4=CC(=O)CCC4=C3[C@@H](c3ccc(N(C)C)cc3)C[C@@]21C [Mifepristone, 17-beta-hydroxy-11-beta-(4-dimethylaminophenyl)-17-alpha-(1-propynyl)-estra-4,9-dien-3-one] | – |
| – | NC(=O)CN1CCCC1=O [Piracetam] | failed to enhance cognitive function |
